Measurements taken from patent US20120027807A1, “TISSUE ENGINEERED MYOCARDIUM AND METHODS OF PRODUCTION AND USES THEREOF” (THE GENERAL HOSPITAL CORPORATION, priority 2008, published 2012).

Assays:
[1] = test system: R+G+ derived ventricular myocytes; type: cell-based, mouse
[2] = test system: gap junctions (e.g. Connexin 43); assay: Heptanol wash-in / wash-out on muscular thin film; type: cell-based, mouse
From the text: FIGS. 10A-10D show the tissue engineered myocardium on a muscular thin film derived from cardiac progenitor cells. […] All the heptanol was not washed-out resulting in the reduced contractility after cell-cell electrical coupling was restored.

SMILES	effect on the transmembrane action potential [1]	contractions after heptanol wash-out ([2]; partial wash-out)	coupling of cardiomyocytes by gap junctions ([2]; wash-in then wash-out of heptanol, MTF contractile force over time)
NC1=N[C@H](O)[C@H]2[C@H]3O[C@]4(O)O[C@@H]([C@@H](O)[C@@]2(N1)[C@@H]4O)[C@]3(O)CO [TTX, tetrodotoxin]	ablated the action potential		
CCCCCCCO [heptanol]		partial washout restores contractions	reversibly blocked
